Legend:
Conditions in all cases: 72 h
Caco-2 [1] = assay: cell viability relative to DMSO; higher = less toxic
Calu-3 [2] = assay: as above
HepG2 [3] = assay: as above
U2OS [4] = assay: as above
Vero E6 [5] = assay: as above
Caco-2 [6] = assay: relative viability EC50 (midpoint between 100% and the lowest measured viability); higher = less toxic
Calu-3 [7] = assay: as above
HepG2 [8] = assay: as above
U2OS [9] = assay: as above
Vero E6 [10] = assay: as above
Caco-2 [11] = assay: drug sensitivity score (DSS) for viability; higher = more toxic; extreme values may be limits of the assay
Calu-3 [12] = assay: as above
HepG2 [13] = assay: as above
U2OS [14] = assay: as above
Vero E6 [15] = assay: as above

| SMILES | cell viability (Caco-2 [1]; 1 nM) | cell viability (Caco-2 [1]; 10 nM) | cell viability (Caco-2 [1]; 100 nM) | cell viability (Caco-2 [1]; 1000 nM) | cell viability (Caco-2 [1]; 10000 nM) | cell viability (Calu-3 [2]; 1 nM) | cell viability (Calu-3 [2]; 10 nM) | cell viability (Calu-3 [2]; 100 nM) | cell viability (Calu-3 [2]; 1000 nM) | cell viability (Calu-3 [2]; 10000 nM) | cell viability (HepG2 [3]; 1 nM) | cell viability (HepG2 [3]; 10 nM) | cell viability (HepG2 [3]; 100 nM) | cell viability (HepG2 [3]; 1000 nM) | cell viability (HepG2 [3]; 10000 nM) | cell viability (U2OS [4]; 1 nM) | cell viability (U2OS [4]; 10 nM) | cell viability (U2OS [4]; 100 nM) | cell viability (U2OS [4]; 1000 nM) | cell viability (U2OS [4]; 10000 nM) | cell viability (Vero E6 [5]; 1 nM) | cell viability (Vero E6 [5]; 10 nM) | cell viability (Vero E6 [5]; 100 nM) | cell viability (Vero E6 [5]; 1000 nM) | cell viability (Vero E6 [5]; 10000 nM) | relative viability EC50 (Caco-2 [6]) | relative viability EC50 (Calu-3 [7]) | relative viability EC50 (HepG2 [8]) | relative viability EC50 (U2OS [9]) | relative viability EC50 (Vero E6 [10]) | drug sensitivity score (Caco-2 [11]) | drug sensitivity score (Calu-3 [12]) | drug sensitivity score (HepG2 [13]) | drug sensitivity score (U2OS [14]) | drug sensitivity score (Vero E6 [15]) |
| --- | --- | --- | --- | --- | --- | --- | --- | --- | --- | --- | --- | --- | --- | --- | --- | --- | --- | --- | --- | --- | --- | --- | --- | --- | --- | --- | --- | --- | --- | --- | --- | --- | --- | --- | --- |
| CC1(C)[C@@H](OC(=O)CCC(=O)O)CC[C@]2(C)[C@H]3C(=O)C=C4[C@@H]5C[C@@](C)(C(=O)O)CC[C@]5(C)CC[C@@]4(C)[C@]3(C)CC[C@@H]12 [CARBENOXOLONE SODIUM] | 94.4% | 96.6% | 92.3% | 99.1% | 99% | 88.9% | 102% | 92.8% | 106% | 96% | 97.8% | 98% | 113% | 96.6% | 91.2% | 107% | 99.8% | 101% | 103% | 104% | 100% | 49.3% | 101% | 59.6% | 99.2% | > 10 µM | > 10 µM | > 10 µM | > 10 µM | > 10 µM | 0 | 0 | 0 | 0 | 0 |
| O=C(O)[C@H]1CN(CCCP(=O)(O)O)CCN1 [CPP] | 97% | 101% | 103% | 101% | 94.5% | 102% | 104% | 92.6% | 89.4% | 90.5% | 96.6% | 112% | 98.6% | 103% | 104% | 103% | 106% | 101% | 101% | 99.8% | 99.2% | 103% | 99.8% | 102% | 102% | > 10 µM | > 10 µM | > 10 µM | > 10 µM | > 10 µM | 0 | 0.2 | 0 | 0 | 0 |
| c1ccc(CNc2nc(NCc3ccccc3)c3ccccc3n2)cc1 [DBeQ] | 95.7% | 112% | 94.5% | 100% | 28.8% | 105% | 103% | 91.2% | 93.7% | 9% | 104% | 96.1% | 100% | 96.6% | 8.4% | 97.6% | 102% | 97.1% | 90.5% | 8.2% | 99.8% | 98.9% | 95.5% | 94.1% | 19.8% | 3.17 µM | 2.61 µM | 2.89 µM | 2.31 µM | 2.57 µM | 3.9 | 6 | 5.5 | 6.7 | 5.4 |
| O=P(O)(O)CN(CCN(CP(=O)(O)O)CP(=O)(O)O)CP(=O)(O)O [EDTMP] | 98.2% | 95.5% | 95.4% | 105% | 104% | 105% | 100% | 96% | 97.1% | 99% | 88.5% | 96.3% | 96.5% | 92.2% | 106% | 99.8% | 95.9% | 102% | 97.8% | 104% | 96.1% | 99.8% | 102% | 98.2% | 91% | > 10 µM | > 10 µM | > 10 µM | > 10 µM | > 10 µM | 0 | 0 | 0 | 0 | 0 |
| C[C@@H](CCCCC(=O)Nc1ccc(C(F)(F)F)cc1)NCCc1c[nH]cn1 [HTMT] | 97.2% | 92.8% | 87% | 99.4% | 94.1% | 100% | 97.8% | 100% | 106% | 100% | 110% | 95.6% | 104% | 104% | 98% | 99.9% | 100% | 96.9% | 101% | 106% | 98.3% | 94.7% | 98% | 100% | 108% | > 10 µM | > 10 µM | > 10 µM | > 10 µM | > 10 µM | 0 | 0 | 0 | 0 | 0 |
| O=C(Nc1cc(C(F)(F)F)cc(C(F)(F)F)c1)c1cc(Cl)ccc1O [IKK-2-inhibitor-V] | 95.9% | 89.4% | 95.3% | 29.2% | 14.5% | 98.4% | 107% | 98.3% | 99.8% | 13.8% | 99.6% | 99.6% | 112% | 17.2% | 6.8% | 95.7% | 101% | 89.7% | 82.9% | 11.2% | 100% | 90.5% | 98.8% | 52.6% | 16.3% | 0.436 µM | 3.14 µM | 0.477 µM | 1.77 µM | 0.876 µM | 13.8 | 4.8 | 14.7 | 7.7 | 10.3 |
| O=C(NCc1ccc(Oc2ccccc2)cc1)c1nc(-c2cc(Br)c(O)c(Br)c2)no1 [IOWH032] | 104% | 100% | 99.1% | 88.4% | 81% | 101% | 102% | 95.9% | 100% | 88.7% | 91.3% | 102% | 86.7% | 101% | 76.1% | 96.7% | 98.5% | 96.4% | 94.5% | 92.3% | 102% | 106% | 104% | 98.2% | 79.9% | > 10 µM | > 10 µM | > 10 µM | > 10 µM | > 10 µM | 1.4 | 0 | 0.8 | 0 | 0.8 |

From the supplement of paper PMC13380429
